Assays:
[1] = molecular target: T1, E. coli AcrB (Escherichia coli, UniProt P31224); assay: Single-particle cryo-EM of AcrB-EPM complexes in nanodiscs; details: "binding" protomer of the AcrB trimer; 10 µM EPM
T1 construct: 4xHis (C); made in house; host or cells: E. coli BL21-Gold (DE3), plasmid derived from pSPORT1
Protocol: To elucidate at high resolution how the EPM analogs interact with AcrB, we used cryo-electron microscopy (cryo-EM). We overproduced and purified the E. coli AcrB protein containing a 6×His tag at the C-terminus and reconstituted the protein into lipidic nanodiscs ([17]). We incubated the AcrB-nanodisc samples with the parent compound or with one of three structurally dissimilar EPMs analogs (CU032, CU232, CU244) to form AcrB-EPM complexes. We then solved single-particle cryo-EM structures of these complexes to resolutions between 2.63 and 2.82 Å (Table 2; Fig. 3).
AcrB was purified from E. coli BL21(DE3)ΔacrB/pSPORTΩacrB cells and reconstituted into lipidic nanodiscs. To assemble AcrB into nanodiscs, a mixture containing 10 µM AcrB, 30 µM membrane scaffold protein (1E3D1), and 900 µM E. coli total extract lipid was incubated for 15 min at room temperature. After, 0.8 mg/mL prewashed Bio-Beads (Bio-Rad) was added. The resultant mixture was incubated for 1 h on ice, followed by overnight incubation at 4°C. The protein-nanodisc solution was filtered through 0.22 µm nitrocellulose filter tubes to remove the Bio-Beads. To separate free nanodiscs from AcrB-loaded nanodiscs, the filtered protein-nanodisc solution was purified using a Superose six column (GE Healthcare) equilibrated with 20 mM Tris-HCl (pH 7.5) and 100 mM NaCl. Fractions corresponding to the size of the trimeric AcrB-nanodisc complex were collected for cryo-EM ([46]). We then incubated 0.6 mg/mL AcrB-nanodisc with 10 µM EPM for 2 h and solved structure of the AcrB-EPM complex using single-particle cryo-EM to a resolution of 2.20 Å.

[2] = tested on: S. Typhimurium SL1344 (sifB::gfp) in RAW 264.7 macrophages; assay: SAFIRE macrophage assay: intracellular bacterial load (GFP signal within macrophages); type: cell-based, Salmonella enterica serotype Typhimurium; details: for IC50: Salmonella enterica, TYPHIMURIUM, RAW264.7, read-out: SAFIRE IC50
Summary of the method: (§1)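 Compound or DMSO added 2 h after gentamicin-protected infection (MOI ~30, sifB::gfp SL1344) of RAW 264.7 cells and left to 18 h. Fixed cells imaged; intracellular GFP area per macrophage gives bacterial load, while retained adherent MitoTracker Red-stained macrophages define host toxicity.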

[3] = tested on: RAW 264.7 macrophages; assay: SAFIRE macrophage assay: host toxicity (adherent macrophage count, morphology); type: cell-based
Summary of the method: as §1

[4] = 25 uM, 'Toxic' given instead of a score
[5] = 5 uM compound, n=1, DMSO solvent control = 98, rifampicin 2 μg/mL = 65
[6] = 25 uM compound, n=1, DMSO solvent control = 98, rifampicin 2 μg/mL = 65
[7] = 5 uM compound, n=1, DMSO solvent control = 100
[8] = 25 uM compound, n=1, DMSO solvent control = 100

T1 sequence (P31224 whole entry): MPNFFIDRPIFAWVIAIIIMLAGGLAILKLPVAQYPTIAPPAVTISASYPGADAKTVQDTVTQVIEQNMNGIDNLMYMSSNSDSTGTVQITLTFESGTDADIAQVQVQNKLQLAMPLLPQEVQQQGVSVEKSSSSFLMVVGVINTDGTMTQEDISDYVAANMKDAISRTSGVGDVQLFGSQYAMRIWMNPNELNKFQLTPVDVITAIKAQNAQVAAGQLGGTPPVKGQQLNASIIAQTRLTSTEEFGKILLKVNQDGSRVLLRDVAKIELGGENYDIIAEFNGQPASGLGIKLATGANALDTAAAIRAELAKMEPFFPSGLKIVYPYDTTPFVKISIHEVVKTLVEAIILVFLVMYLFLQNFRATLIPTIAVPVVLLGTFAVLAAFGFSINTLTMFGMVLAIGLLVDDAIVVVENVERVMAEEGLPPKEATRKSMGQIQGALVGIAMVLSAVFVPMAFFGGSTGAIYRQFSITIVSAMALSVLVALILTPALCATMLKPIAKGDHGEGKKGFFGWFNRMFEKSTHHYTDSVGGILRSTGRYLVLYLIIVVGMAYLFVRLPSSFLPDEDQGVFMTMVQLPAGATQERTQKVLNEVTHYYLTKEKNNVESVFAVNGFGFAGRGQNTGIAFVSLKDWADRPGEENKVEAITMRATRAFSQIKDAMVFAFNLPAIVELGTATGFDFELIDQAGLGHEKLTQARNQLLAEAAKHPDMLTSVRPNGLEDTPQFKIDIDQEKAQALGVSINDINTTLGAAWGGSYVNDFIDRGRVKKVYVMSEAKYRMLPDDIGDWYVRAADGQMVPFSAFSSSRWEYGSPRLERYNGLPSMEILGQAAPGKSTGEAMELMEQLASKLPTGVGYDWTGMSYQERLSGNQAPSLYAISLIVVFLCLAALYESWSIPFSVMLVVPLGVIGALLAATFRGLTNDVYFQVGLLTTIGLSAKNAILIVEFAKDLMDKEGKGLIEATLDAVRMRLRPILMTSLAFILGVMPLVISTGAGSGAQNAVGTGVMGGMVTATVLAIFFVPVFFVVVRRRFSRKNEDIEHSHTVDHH

Row | Structure (SMILES) | binding site in AcrB (cryo-EM) [1] | 5 uM Avg Antibacterial Score ([2]; 5 uM, 'Toxic' given instead of a score) | 25 uM Avg Antibacterial Score [2, 4] | IC50 [2] | 5 uM Avg Cell # Score ([3]; 5 uM) | 25 uM Avg Cell # Score ([3]; 25 uM) | 5 uM Avg Antibacterial Score [2, 5] | 25 uM Avg Antibacterial Score [2, 6] | 5 uM Avg Cell # Score [3, 7] | 25 uM Avg Cell # Score [3, 8] | 5 uM Avg Cell # Score ([3]; 5 uM, listed as CU035) | 25 uM Avg Cell # Score ([3]; 25 uM, listed as CU035)
1 | NC1CCN(CC(O)COc2ccc(Cl)c(Cl)c2)C1 (stereo not shown) [CU032] | distal drug-binding pocket | 55 | 21 | 0.0174 µM | 95 | 95 | – | – | – | – | – | –
2 | NC1CCN(CC(O)COc2cccc(C(F)(F)F)c2)CC1 (stereo not shown) [CU232] | distal drug-binding site | – | – | 0.0069 µM | – | – | 37 | 21 | 124 | 113 | – | –
3 | OC(CN[C@H]1[C@@H]2CNC[C@@H]21)COc1cc(Cl)cc(Cl)c1 (stereo partly shown) [CU244] | distal drug-binding site | – | – | 0.372 µM | – | – | 48 | 19 | 121 | 108 | – | –
4 | OC(COc1ccc(Cl)c(Cl)c1)CN1CCC(Nc2nccc(C(F)(F)F)n2)CC1 (stereo not shown) [EPM35] | distal drug-binding pocket | – | Toxic | 3.45 µM | 98 | 72 | – | – | – | – | 107 | 134

— paper PMC10746280, “Bacterial efflux pump modulators prevent bacterial growth in macrophages and under broth conditions that mimic the host environment” (mBio, 2023)
